Laboratory results: patent US8278460B2, “Substituted benzimidazoles” (Concert Pharmaceuticals, Inc., priority 2009, dated 2012)

Legend:
[1] = Metabolic stability in human liver microsomes; format: in vitro ADME; conditions: for % Parent Remaining (30 min) Ave ± SD: 2.0 mg/mL human liver microsomes, 2 mM NADPH, pH 7.4, 37° C., average of 3 experiments
Protocol: Human liver microsomes (20 mg/mL) were available from Xenotech, LLC (Lenexa, Kans.). β-nicotinamide adenine dinucleotide phosphate, reduced form (NADPH), magnesium chloride (MgCl2), and dimethyl sulfoxide (DMSO) are available from Sigma-Aldrich.
7.5 mM stock solutions of test compound 102 as well as of NS11394 were prepared in DMSO. The 7.5 mM stock solutions were diluted to 12.5 in acetonitrile (ACN). The 20 mg/mL human liver microsomes were diluted to 2.5 mg/mL in 0.1 M potassium phosphate buffer, pH 7.4, containing 3 mM MgCl2. The diluted microsomes were added to wells of a 96-well deep-well polypropylene plate in triplicate. A […] aliquot of the 12.5 test compound 102 was added to the microsomes and the mixture was pre-warmed for 10 minutes. Reactions were initiated by addition of pre-warmed NADPH solution. The final reaction volume was 0.5 mL and contained 2.0 mg/mL human liver microsomes, 0.25 test compound, and 2 mM NADPH in 0.1 M potassium phosphate buffer, pH 7.4, and 3 mM MgCl2. The reaction mixtures were incubated at 37° C., and […] aliquots were removed at 0, 5, 10, 20, and 30 minutes and added to shallow-well 96-well plates which contain […] of ice-cold ACN with internal standard to stop the reactions. The plates were stored at 4° C. for 20 minutes after which […] of water was added to the wells of the plate before centrifugation to pellet precipitated proteins. Supernatants were transferred to another 96-well plate and analyzed for amounts of parent remaining by LC-MS/MS using an AB SCIEX QTRAP® 5500. Testing was done in triplicate.
The in vitro t1/2s for test compounds were calculated from the slopes of the linear regression of % parent remaining (ln) vs incubation time relationship: in vitro t1/2=0.693/k k=−[slope of linear regression of % parent remaining (ln) vs incubation time]. Data analysis was performed using Microsoft Excel Software.
The testing was done in triplicate and the values shown in the table reflect the average of 3 experiments. […]

[2] = target: T1, GABAA α3 receptors (Homo sapiens, UniProt P18507+P34903); conditions: cited from earlier work
T1 sequence (P34903 29-492): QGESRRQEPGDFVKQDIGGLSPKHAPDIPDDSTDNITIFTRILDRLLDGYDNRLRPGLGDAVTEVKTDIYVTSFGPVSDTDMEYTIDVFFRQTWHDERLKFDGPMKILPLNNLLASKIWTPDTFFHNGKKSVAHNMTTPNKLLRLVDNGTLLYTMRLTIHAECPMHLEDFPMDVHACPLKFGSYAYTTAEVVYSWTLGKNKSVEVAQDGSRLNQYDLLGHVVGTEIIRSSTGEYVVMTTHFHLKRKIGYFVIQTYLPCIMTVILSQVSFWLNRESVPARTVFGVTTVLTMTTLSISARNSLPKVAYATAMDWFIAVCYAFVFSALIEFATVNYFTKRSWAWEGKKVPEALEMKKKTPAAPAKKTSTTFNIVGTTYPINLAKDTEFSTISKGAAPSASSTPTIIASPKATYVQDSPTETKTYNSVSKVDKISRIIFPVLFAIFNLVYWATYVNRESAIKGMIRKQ
T1 sequence (P18507 40-467 limits assumed): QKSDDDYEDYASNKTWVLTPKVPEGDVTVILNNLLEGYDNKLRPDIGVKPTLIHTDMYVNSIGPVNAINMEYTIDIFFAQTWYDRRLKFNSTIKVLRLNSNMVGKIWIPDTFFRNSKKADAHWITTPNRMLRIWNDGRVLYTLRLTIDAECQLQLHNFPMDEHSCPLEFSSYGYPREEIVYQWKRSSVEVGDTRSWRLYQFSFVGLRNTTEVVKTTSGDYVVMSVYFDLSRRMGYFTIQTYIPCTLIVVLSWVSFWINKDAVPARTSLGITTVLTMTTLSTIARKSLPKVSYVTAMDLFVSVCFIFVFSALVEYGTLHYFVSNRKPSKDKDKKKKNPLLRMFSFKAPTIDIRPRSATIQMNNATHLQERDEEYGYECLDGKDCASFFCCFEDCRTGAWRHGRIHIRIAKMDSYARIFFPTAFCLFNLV
T1 sequence (P47870 25-512 partner limits assumed): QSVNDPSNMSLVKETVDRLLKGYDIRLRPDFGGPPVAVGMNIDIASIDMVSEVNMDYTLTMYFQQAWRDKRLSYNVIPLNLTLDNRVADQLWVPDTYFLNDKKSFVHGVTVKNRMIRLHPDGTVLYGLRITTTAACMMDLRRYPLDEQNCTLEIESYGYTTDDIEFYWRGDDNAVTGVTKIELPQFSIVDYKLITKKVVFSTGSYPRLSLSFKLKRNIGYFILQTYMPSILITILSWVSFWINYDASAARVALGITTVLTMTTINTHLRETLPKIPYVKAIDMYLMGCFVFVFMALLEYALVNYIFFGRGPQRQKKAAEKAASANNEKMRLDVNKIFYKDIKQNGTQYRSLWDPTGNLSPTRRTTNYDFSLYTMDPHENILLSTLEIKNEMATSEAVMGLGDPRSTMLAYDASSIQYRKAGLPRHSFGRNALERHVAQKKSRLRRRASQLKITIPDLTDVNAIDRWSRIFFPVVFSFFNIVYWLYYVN

[3] = tested on: inflammatory and neuropathic pain-like behaviors in animal models; conditions: cited from earlier work
[4] = tested on: rodent anxiety models; conditions: in vivo; cited from earlier work
[5] = animal models, oral administration

SMILES | % Parent Remaining (30 min) Ave ± SD [1] | half-life ([1]; human, human liver microsomes, pH 7.4, in vitro t1/2 from linear regression of ln % parent remaining vs incubation time, NC = not calculable due to <20% metabolism in HLM, read-out: t1/2 (min) Ave ± SD) | efficacy at GABAA α3 receptors [2] | reversal of inflammatory and neuropathic pain-like behaviors [3, 5] | tolerability [3, 5] | dependence issues ([3]; in vivo) | efficacy in rodent anxiety models [4]
CC(C)(O)c1ccc2c(c1)ncn2-c1cccc(-c2ccccc2C#N)c1 [NS11394, 3′-[5-(1-hydroxy-1-methylethyl)-1H-benzimidazol-1-yl]biphenyl-2-carbonitrile] | 77 ± 3.7% | 95 ± 35 min | high efficacy | completely reverse | well tolerated | No dependence issues were observed | potent and highly effective
[2H]C([2H])([2H])C(O)(c1ccc2c(c1)ncn2-c1cccc(-c2ccccc2C#N)c1)C([2H])([2H])[2H] [Compound 102, 3′-(5-(2-Hydroxy-1,1,1,3,3,3-d6-propan-2-yl)-1H-benzo[d]imidazol-1-yl)biphenyl-2-carbonitrile] | 101 ± 8.7% | – | – | – | – | – | –
